In patent US20200216417A1, “INHIBITORS OF FIBROBLAST ACTIVATION PROTEIN” (Praxis Biotech LLC, priority 2019, published 2020):

How the values were obtained:
[1] = upon standing in pH 7.8; cyclization (Narra et al., 2007); cited from earlier work
[2] = system: human AML cell line MV4-11; assay: Cytotoxicity assay in human leukemia cell lines (Cell-Titer Glo); settings: MV4-11, 48 h, read-out: MV4-11 viability IC50, μM

SMILES: CC(C)[C@H](N)C(=O)N1CCC[C@H]1B(O)O [Val-boroPro, reference compound]
- stability of protease inhibitory activity [1]: rapidly loses protease inhibitory activity
- IC50 [2]: < 3 µM
